# Measurements as given in patent publication US4201784A, “Substituted 2-[2'-(5"-nitrofuryl-2")vinyl-and 4'-(5"-nitrofuryl-2"-1,3-butadieryl]quinoline-4-carboxylic acid amides and salts thereof” (Institut Organicheskogo Sinteza Akademii Nauk Latviiskoi SSR, priority 1977, dated 1980).
# Read-outs that look alike come from different tables or passages of the source.
# Experiments:
# [1] = test system: Lewis lung carcinoma; assay: Antitumor / antimetastatic activity, Lewis lung carcinoma; format: in vivo, mice
# Description: (§1) Apart from the tests on Ehrlich ascitic tumor, giniquine was studied on twelve more inoculated tumors. Seven tumors (melanoma B16, sarcoma AK, large intestine carcinoma acatol-1, sarcoma 180, adenocarcinoma 755, Lewis lung carcinoma and sarcoma 37) were inoculated subcutaneously with 50 mg of tumoral cells per mouse. Four tumors (lymphatic leukemies L 5178, L 5178Y, L 1210 and P-388) were inoculated intraperitoneally with 10^6 cells per mouse. One tumor (La, hemocytoblastosis) was inoculated intraperitoneally by injecting 50 mg of cell suspension of spleen and liver of mice suffering La hemocytoblastosis, per mouse. Giniquine was injected intraperitoneally five times for seven days: 1,2,3,4,7 days or 3,4,5,6,7 days after the implantation of tumor. The rate of deceleration of the tumor growth was established 14 days after the ultimate injection of giniquine; life of test animals was recorded for 60 days.
# [2] = test system: lymphatic leukemia L-1210; assay: Antitumor activity, lymphatic leukemia L-1210; format: in vivo, mice
# Description: as §1
# [3] = test system: Ehrlich ascitic tumor; assay: Influence of fluorafur on antitumor activity of giniquine, Ehrlich ascitic tumor; format: in vivo, mice
# Description: In some experiments the influence of the known preparation fluorofur on the antitumoral activity of giniquine was studied. […] The tests were made on Ehrlich ascitic tumor. The preparations were injected 1,2,3,4 and 7 days after the implantation of tumor. Giniquine was injected intraperitoneally and fluorafur-subcutaneously.
# giniquine was injected intraperitoneally, and fluorafursubcutaneously.
# [4] = LD50 / toxicity, mice with 7-days Ehrlich ascitic tumor; format: in vivo; details: for LD50: mouse, in vivo
# From the text: It should be noted that with a single intraperitoneal injection of the
# With peroral administration, toxicity of giniquine is 4-5 times lower.
# [5] = test system: cells of Ehrlich ascitic tumor; assay: In vitro incorporation of labeled precursors into DNA, RNA and protein of Ehrlich ascitic tumor cells; format: cell-based, mice; details: for activity at 100 µM: 1 h, 1.10^-4 M
# Description: The effect of giniquine on biosynthesis of molecules in the in vitro tests was studied with suspensions of cells of Ehrlich ascitic tumor. The tests were conducted with common white mice of a mass of 18-20 g. Ascites was taken 7-8 days after the inoculation, dissolved with a cool Eagle medium (pH 7.4) containing 0.1% of heparin, and the cells were precipitated by centrifuging at 600 g. The cells were washed twice with the same medium, and a 10% suspension of the cells in the Eagle medium was prepared.
# The effect of giniquine on biosynthesis of DNA, RNA and protein in the cells of Ehrlich ascitic tumor was assessed on the basis of incorporation of cells of specific labeled precursors into acid-insoluble fraction: 2-^14 C-thymidine, 2-^14 C-uridine and 2-^14 C-leucine, respectively.
# The incubating medium contained, in a total volume of 2 ml, 100 mg of tumoral cells in the form of suspension, Eagle medium (pH 7.4), giniquine in a concentration of 1.10^-4 m and labeled precursors of nucleic acids and protein with a radioactivity corresponding to 0.1 μc. Control samples contained a corresponding volume of distilled water to replace the preparation solution.
# The incubation was conducted in Warburg apparatus vessels at 37° C. for one hour. After the incubation, tumoral cells were fixed by adding cool 10% trichloracetic acid to the incubating medium (1:1). Concurrently a control sample without incubation was prepared, to which, before adding the cell suspension, was added 10% trichloracetic acid in the same ratio.
# The precipitated cells were extracted for 20 minutes at 0° C. with 5% trichloroacetic acid. The samples were then filtered through millipore filters (HUFS, pore diameter 0.4 μ). The precipitate on the filter was washed twice with 5 ml of cool 5% trichloracetic acid and once with 5 ml of toluene. The filters were dried in the air and transferred into quartz flasks containing 10 ml of toluene scintillator. The radioactivity was determined by means of a liquid scintillation counter. The results were expressed in percent of the control.
# It will be apparent from the Table that under the action of giniquine in a concentration of 1.10^-4 M the incorporation of labeled precursors of DNA, RNA and protein in acid-insoluble fraction of cells of Ehrlich ascitic tumor is disturbed compared to the control. […] The results of in vitro experiments study of the effect of 0.3 and 0.1% solutions of giniquine on the incorporation of 2-^14 C-thymidine in the acid-insoluble fraction (DNA) of Erlich cells are presented in Table 6.
smiles,measurement,setting,value
"CCN(CC)CCCC(C)NC(=O)c1cc(C=Cc2ccc([N+](=O)[O-])o2)nc2ccccc12 (stereo not drawn) [giniquine, 2-[2'-(5""-nitrofuryl-2"")vinyl]quinoline-4-carboxylic acid (α-methyl-δ-diethylaminobutyl)amide triphosphate]",Max. life prolong.,"[1]; BDF1 female mice, intraperitoneal, days 1,2,3,4,7, optimum daily dose 6.0 mg/kg",15%
same,antimetastatic activity / sensitivity (in words),[1]; Lewis lung carcinoma,practically insensitive
same,Max. life prolong.,"[2]; BDF1 male mice, intraperitoneal, days 1,2,3,4,7, optimum daily dose 6.0 mg/kg",15%
same,sensitivity (in words),[2]; L-1210,practically insensitive
same,Life prolongation,"[3]; Test No. 1, giniquine 3.6 mg/kg daily",55%
same,Life prolongation,"[3]; Test No. 1, giniquine 6.0 mg/kg daily",67%
same,Life prolongation,"[3]; Test No. 1, giniquine 10.0 mg/kg daily",38%
same,Life prolongation,"[3]; Test No. 1, giniquine 17.0 mg/kg daily",-5%
same,Life prolongation,"[3]; Test No. 2, giniquine 3.6 mg/kg daily",45%
same,Life prolongation,"[3]; Test No. 2, giniquine 6.0 mg/kg daily",98%
same,Life prolongation,"[3]; Test No. 2, giniquine 10.0 mg/kg daily",5%
same,Life prolongation,"[3]; Test No. 2, giniquine 17.0 mg/kg daily",-48%
same,dependence of mice sensitivity on sex,[4]; Table 4,does not depend on the sex of test mice
same,LD50,"[4]; ip, intraperitoneal, single injection, female",99 mg/kg
same,LD50,"[4]; po, peroral, single administration, female",360 mg/kg
same,LD50,"[4]; po, peroral, single administration, male",500 mg/kg
same,"toxicity, times lower",[4]; peroral administration,4-5 times lower
same,"toxicity, relative","[4]; single intraperitoneal injection, 7 days after implantation of Ehrlich ascitic tumor",three times lower
same,Incorporation of 2-^14 C-thymidine in DNA in % of control,[5]; 0.1% solution,2.4 % of control
same,suppression of biosynthesis of DNA in tumor cells (in words),[5]; 0.3% solution,practically complete suppression
same,activity at 100 µM,"[5]; Mus musculus, Ehrlich, read-out: Incorporation of 2-^14 C-leucine in percent of control",86%
same,activity at 100 µM,"[5]; Mus musculus, Ehrlich, read-out: Incorporation of 2-^14 C-thymidine in percent of control",61%
same,activity at 100 µM,"[5]; Mus musculus, Ehrlich, read-out: Incorporation of 2-^14 C-uridine in percent of control",52%
same,activity at 0.1 %,"[5]; Mus musculus, Ehrlich, 0.1% solution, read-out: Incorporation of 2-^14 C-thymidine in DNA in % of control",2.4%
same,activity at 0.3 %,"[5]; Mus musculus, Ehrlich, 0.3% solution, read-out: Incorporation of 2-^14 C-thymidine in DNA in % of control",0.7%
same,"incorporation of labeled precursors in DNA, RNA and protein (in words)",[5]; in vitro,"decelerates the incorporation of labeled precursors in DNA, RNA and protein"
